How the values were obtained:
[1] = test system: MCF-7 human breast cancer cells; test: Inhibition of growth of MCF-7 breast cancer cells (MTT), with MacSynergy II synergy analysis; details: for Antagonsim / Synergy: MCF-7, antiestrogen in combination with CCI-779, MacSynergy II, Bliss independence model; for synergy of growth inhibition (in words): MCF-7 cells, in combination with CCI-779;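 for all read-outs here: cells treated five or six days with single agents or combinations, growth read by MTT, synergy surface equals observed % inhibition minus Bliss additive prediction, values under 0% signal antagonism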
Description: MCF-7 human breast cancer cells were maintained at 37° C. in a humidified atmosphere of 5% CO2 and 95% air in IMEM medium supplemented with 10% fetal bovine serum. […] One day before the experiment, cells were plated in 96-well plates at a cell density of 2,500 cells/well in IMEM medium supplemented with 10% fetal bovine serum. The next day, cells were treated with various concentrations of antiestrogen and rapamycin 42-ester with 3-hydroxy-2-(hydroxymethyl)-2-methylpropionic acid (referred to as CCI-779 in the tables below). Five or six-days later, cell growth was monitored. MTT solution (20 ul) (0.5 mg/ml) was added to each well and cells were incubated for an additional 4 h. The solution was then removed and 150 ul of DMSO added. The intensity of dark blue color corresponding to number of cells was read at 540 nm with an automated plate reader.
Briefly, theoretical additive interactions were calculated from the dose-response curves of each individual drug based on Bliss independence model. The calculated additive surface was then subtracted from the experimental surface to obtain a synergy surface representing % inhibition above the calculated additive value-synergy index. […] Likewise, any peak below the 0% plane is indicative of antagonism.

[2] = test system: BG-1 human ovarian cancer cells; test: Inhibition of growth of BG-1 ovarian cancer cells (MTT), with MacSynergy II synergy analysis; format: cell-based; details: for Antagonsim / Synergy: BG-1, antiestrogen in combination with CCI-779, MacSynergy II, Bliss independence model; for Percent Inhibition: CCI-779 0 nM
Description: In these test procedures, rapamycin 42-ester with 3-hydroxy-2-(hydroxymethyl)-2-methylpropionic acid was used as a representative rapamycin, and 2-(4-hydroxy-phenyl)-3-methyl-1-[4-(2-piperdin-1-yl-ethoxy)-benzyl-1 H-indol-5-ol, raloxifene, and 4-hydroxytamoxifen were used as representative antiestrogens.
One day before the experiment, cells were plated in 96-well plates at a cell density of 2,500 cells/well in IMEM medium supplemented with 10% fetal bovine serum. The next day, cells were treated with various concentrations of antiestrogen and rapamycin 42-ester with 3-hydroxy-2-(hydroxymethyl)-2-methylpropionic acid (referred to as CCI-779 in the tables below). Five or six-days later, cell growth was monitored.

CCC(=C(c1ccc(O)cc1)c1ccc(OCCN(C)C)cc1)c1ccccc1 [TAM, 4-hydroxytamoxifen, reference compound]
Antagonsim [1]: 0.0 μM^2%
Synergy [1]: 77.00 μM^2%
synergy of growth inhibition (in words) [1]: synergistic inhibition
Percent Inhibition ([1]; Table B, CCI-779 0 nM, 4-Hydroxytamoxifen 5 nM): 20.44%
Percent Inhibition ([1]; Table B, CCI-779 0 nM, 4-Hydroxytamoxifen 10 nM): 22.75%
Percent Inhibition ([1]; Table B, CCI-779 0 nM, 4-Hydroxytamoxifen 20 nM): 39.85%
Percent Inhibition ([1]; Table B, CCI-779 0 nM, 4-Hydroxytamoxifen 30 nM): 41.46%
Percent Inhibition ([1]; Table B, CCI-779 0 nM, 4-Hydroxytamoxifen 40 nM): 39.09%
Percent Inhibition ([1]; Table B, CCI-779 0 nM, 4-Hydroxytamoxifen 50 nM): 47.19%
Percent Inhibition ([1]; Table B, CCI-779 0 nM, 4-Hydroxytamoxifen 100 nM): 36.99%
Percent Inhibition ([1]; Table F, 4-Hydroxytamoxifen 0 nM + 4-Hydroxytamoxifen 5 nM): 25.02%
Percent Inhibition ([1]; Table F, 4-Hydroxytamoxifen 0 nM + 4-Hydroxytamoxifen 10 nM): 37.37%
Percent Inhibition ([1]; Table F, 4-Hydroxytamoxifen 0 nM + 4-Hydroxytamoxifen 20 nM): 44.9%
Percent Inhibition ([1]; Table F, 4-Hydroxytamoxifen 0 nM + 4-Hydroxytamoxifen 30 nM): 42.42%
Percent Inhibition ([1]; Table F, 4-Hydroxytamoxifen 0 nM + 4-Hydroxytamoxifen 40 nM): 46.46%
Percent Inhibition ([1]; Table F, 4-Hydroxytamoxifen 0 nM + 4-Hydroxytamoxifen 50 nM): 45.78%
Percent Inhibition ([1]; Table F, 4-Hydroxytamoxifen 0 nM + 4-Hydroxytamoxifen 100 nM): 49.99%
Percent Inhibition ([1]; Table F, 4-Hydroxytamoxifen 5 nM + 4-Hydroxytamoxifen 0 nM): 12.73%
Percent Inhibition ([1]; Table F, 4-Hydroxytamoxifen 5 nM + 4-Hydroxytamoxifen 5 nM): 37.12%
Percent Inhibition ([1]; Table F, 4-Hydroxytamoxifen 5 nM + 4-Hydroxytamoxifen 10 nM): 49.04%
Percent Inhibition ([1]; Table F, 4-Hydroxytamoxifen 5 nM + 4-Hydroxytamoxifen 20 nM): 50.12%
Percent Inhibition ([1]; Table F, 4-Hydroxytamoxifen 5 nM + 4-Hydroxytamoxifen 30 nM): 50.39%
Percent Inhibition ([1]; Table F, 4-Hydroxytamoxifen 5 nM + 4-Hydroxytamoxifen 40 nM): 54.19%
Percent Inhibition ([1]; Table F, 4-Hydroxytamoxifen 5 nM + 4-Hydroxytamoxifen 50 nM): 53.75%
Percent Inhibition ([1]; Table F, 4-Hydroxytamoxifen 5 nM + 4-Hydroxytamoxifen 100 nM): 59.23%
Percent Inhibition ([1]; Table F, 4-Hydroxytamoxifen 10 nM + 4-Hydroxytamoxifen 0 nM): 27.87%
Percent Inhibition ([1]; Table F, 4-Hydroxytamoxifen 10 nM + 4-Hydroxytamoxifen 5 nM): 47.71%
Percent Inhibition ([1]; Table F, 4-Hydroxytamoxifen 10 nM + 4-Hydroxytamoxifen 10 nM): 47.11%
Percent Inhibition ([1]; Table F, 4-Hydroxytamoxifen 10 nM + 4-Hydroxytamoxifen 20 nM): 45.86%
Percent Inhibition ([1]; Table F, 4-Hydroxytamoxifen 10 nM + 4-Hydroxytamoxifen 30 nM): 47.6%
Percent Inhibition ([1]; Table F, 4-Hydroxytamoxifen 10 nM + 4-Hydroxytamoxifen 40 nM): 53.22%
Percent Inhibition ([1]; Table F, 4-Hydroxytamoxifen 10 nM + 4-Hydroxytamoxifen 50 nM): 56.54%
Percent Inhibition ([1]; Table F, 4-Hydroxytamoxifen 10 nM + 4-Hydroxytamoxifen 100 nM): 58.11%
Percent Inhibition ([1]; Table F, 4-Hydroxytamoxifen 50 nM + 4-Hydroxytamoxifen 0 nM): 39.46%
Percent Inhibition ([1]; Table F, 4-Hydroxytamoxifen 50 nM + 4-Hydroxytamoxifen 5 nM): 48.51%
Percent Inhibition ([1]; Table F, 4-Hydroxytamoxifen 50 nM + 4-Hydroxytamoxifen 10 nM): 51.71%
Percent Inhibition ([1]; Table F, 4-Hydroxytamoxifen 50 nM + 4-Hydroxytamoxifen 20 nM): 46.36%
Percent Inhibition ([1]; Table F, 4-Hydroxytamoxifen 50 nM + 4-Hydroxytamoxifen 30 nM): 42.54%
Percent Inhibition ([1]; Table F, 4-Hydroxytamoxifen 50 nM + 4-Hydroxytamoxifen 40 nM): 48.3%
Percent Inhibition ([1]; Table F, 4-Hydroxytamoxifen 50 nM + 4-Hydroxytamoxifen 50 nM): 50.98%
Percent Inhibition ([1]; Table F, 4-Hydroxytamoxifen 50 nM + 4-Hydroxytamoxifen 100 nM): 58.57%
Percent Inhibition ([1]; Table F, 4-Hydroxytamoxifen 100 nM + 4-Hydroxytamoxifen 0 nM): 46.41%
Percent Inhibition ([1]; Table F, 4-Hydroxytamoxifen 100 nM + 4-Hydroxytamoxifen 5 nM): 52.37%
Percent Inhibition ([1]; Table F, 4-Hydroxytamoxifen 100 nM + 4-Hydroxytamoxifen 10 nM): 50.34%
Percent Inhibition ([1]; Table F, 4-Hydroxytamoxifen 100 nM + 4-Hydroxytamoxifen 20 nM): 47.64%
Percent Inhibition ([1]; Table F, 4-Hydroxytamoxifen 100 nM + 4-Hydroxytamoxifen 30 nM): 48.22%
Percent Inhibition ([1]; Table F, 4-Hydroxytamoxifen 100 nM + 4-Hydroxytamoxifen 40 nM): 51.79%
Percent Inhibition ([1]; Table F, 4-Hydroxytamoxifen 100 nM + 4-Hydroxytamoxifen 50 nM): 55.29%
Percent Inhibition ([1]; Table F, 4-Hydroxytamoxifen 100 nM + 4-Hydroxytamoxifen 100 nM): 61.34%
Percent Inhibition ([1]; Table F, 4-Hydroxytamoxifen 200 nM + 4-Hydroxytamoxifen 0 nM): 45.75%
Percent Inhibition ([1]; Table F, 4-Hydroxytamoxifen 200 nM + 4-Hydroxytamoxifen 5 nM): 54.54%
Percent Inhibition ([1]; Table F, 4-Hydroxytamoxifen 200 nM + 4-Hydroxytamoxifen 10 nM): 51.06%
Percent Inhibition ([1]; Table F, 4-Hydroxytamoxifen 200 nM + 4-Hydroxytamoxifen 20 nM): 52%
Percent Inhibition ([1]; Table F, 4-Hydroxytamoxifen 200 nM + 4-Hydroxytamoxifen 30 nM): 49.75%
Percent Inhibition ([1]; Table F, 4-Hydroxytamoxifen 200 nM + 4-Hydroxytamoxifen 40 nM): 59.13%
Percent Inhibition ([1]; Table F, 4-Hydroxytamoxifen 200 nM + 4-Hydroxytamoxifen 50 nM): 59.05%
Percent Inhibition ([1]; Table F, 4-Hydroxytamoxifen 200 nM + 4-Hydroxytamoxifen 100 nM): 61.13%
Percent Inhibition ([1]; Table F, 4-Hydroxytamoxifen 400 nM + 4-Hydroxytamoxifen 0 nM): 48.85%
Percent Inhibition ([1]; Table F, 4-Hydroxytamoxifen 400 nM + 4-Hydroxytamoxifen 5 nM): 52.28%
Percent Inhibition ([1]; Table F, 4-Hydroxytamoxifen 400 nM + 4-Hydroxytamoxifen 10 nM): 58.29%
Percent Inhibition ([1]; Table F, 4-Hydroxytamoxifen 400 nM + 4-Hydroxytamoxifen 20 nM): 56.61%
Percent Inhibition ([1]; Table F, 4-Hydroxytamoxifen 400 nM + 4-Hydroxytamoxifen 30 nM): 57.28%
Percent Inhibition ([1]; Table F, 4-Hydroxytamoxifen 400 nM + 4-Hydroxytamoxifen 40 nM): 59.68%
Percent Inhibition ([1]; Table F, 4-Hydroxytamoxifen 400 nM + 4-Hydroxytamoxifen 50 nM): 67.28%
Percent Inhibition ([1]; Table F, 4-Hydroxytamoxifen 400 nM + 4-Hydroxytamoxifen 100 nM): 64.92%
Antagonsim [2]: 0.0 μM^2%
Synergy [2]: 0.3 μM^2%
Percent Inhibition ([2]; Table H, 4-Hydroxytamoxifen 5 nM): 23.99%
Percent Inhibition ([2]; Table H, 4-Hydroxytamoxifen 10 nM): 21.39%
Percent Inhibition ([2]; Table H, 4-Hydroxytamoxifen 20 nM): 35.05%
Percent Inhibition ([2]; Table H, 4-Hydroxytamoxifen 30 nM): 36.43%
Percent Inhibition ([2]; Table H, 4-Hydroxytamoxifen 40 nM): 39.51%
Percent Inhibition ([2]; Table H, 4-Hydroxytamoxifen 50 nM): 47.73%
Percent Inhibition ([2]; Table H, 4-Hydroxytamoxifen 100 nM): 50%

O=C(c1ccc(OCCN2CCCCC2)cc1)c1c(-c2ccc(O)cc2)sc2cc(O)ccc12 [RAL, raloxifene, reference compound]
Antagonsim [1]: 0.0 μM^2%
Synergy [1]: 113.0 μM^2%
synergy of growth inhibition (in words) [1]: synergistic inhibition
Percent Inhibition ([1]; Table C, CCI-779 0 nM, Raloxifene 0.25 nM): −1.4%
Percent Inhibition ([1]; Table C, CCI-779 0 nM, Raloxifene 0.5 nM): −5.17%
Percent Inhibition ([1]; Table C, CCI-779 0 nM, Raloxifene 1 nM): 17.3%
Percent Inhibition ([1]; Table C, CCI-779 0 nM, Raloxifene 2 nM): 36.78%
Percent Inhibition ([1]; Table C, CCI-779 0 nM, Raloxifene 3 nM): 42.4%
Percent Inhibition ([1]; Table C, CCI-779 0 nM, Raloxifene 4 nM): 50.49%
Percent Inhibition ([1]; Table C, CCI-779 0 nM, Raloxifene 5 nM): 50.5%
Antagonsim [2]: −1.8 μM^2%
Synergy [2]: 40.3 μM^2%
Percent Inhibition ([2]; Table I, Raloxifene 0.25 nM): 0.74%
Percent Inhibition ([2]; Table I, Raloxifene 0.5 nM): −3.32%
Percent Inhibition ([2]; Table I, Raloxifene 1 nM): 7.79%
Percent Inhibition ([2]; Table I, Raloxifene 2 nM): 9.85%
Percent Inhibition ([2]; Table I, Raloxifene 3 nM): 11.5%
Percent Inhibition ([2]; Table I, Raloxifene 4 nM): 14.49%
Percent Inhibition ([2]; Table I, Raloxifene 5 nM): 14.04%

Reference: patent US20020045638A1, “Method of treating estrogen receptor positive carcinoma” (priority 2000, published 2002)
